Data on 2 compounds can be found in patent publication US11415513B2, “Method for determining the degree of sensitivity of a strain of fungus to an antifungal agent” (UNIVERSITE GRENOBLE ALPES, priority 2015, dated 2022).

Assay [1] concerns strain SC5314 of C. albicans. The experiment in a line: Sensitivity test by HCA microscopy (chitin level, Calcofluor White; cell count). The settings on record: 6.5 h at 30° C., SC medium; for decrease of the number of cells / increase of the chitin level in the wall of the cells: vs cells in the absence of antifungal agent, concentration gradient of Table 1. In kind it is cell-based, Candida albicans. The protocol: (§1) The strains of Candida were incubated beforehand at 30° C. overnight in a yeast extract medium—peptone dextrose (YPD) (1% bacto peptone, 0.5% yeast extract, 2% glucose, 1.5% agar).
(§2) Yeast colonies were then removed from YPD medium plates and suspended in a 0.9% NaCl saline solution, in which the cell concentration was estimated by optical microscopy using Kova counting slides.
(§3) A dilution was performed to obtain 15 ml of an inoculum at 3×10^6 CFU/ml, in a synthetic complete (SC) medium at pH 7 (2% glucose, 0.5% ammonium sulfate, 0.17% nitrogen-containing yeast base, 0.2% synthetic complete mixture, and 10% HEPES 1.5M pH 7.2) for C. albicans, C. parapsilosis, C. tropicalis and C. krusei, and in a solution of RPMI 1640 pH 7.3 (10% HEPES 1M pH 7.2) for C. glabrata, so as to reduce the formation of septa and clusters.
(§4) 1 ml of inoculum was then added to 2 ml of antifungal solution prepared in an SC or RPMI medium depending on the species of fungus, so as to obtain a final concentration of yeast of 10^6 CFU/ml and the desired concentration of antifungal agent according to table 1.
(§5) After homogenisation, the cultures were placed at 30° C. at 200 rpm, with the exception of cultures of C. glabrata, which were placed at 35° C. at 200 rpm, and incubated for a period of 6.5 h or 24 h.
(§6) After incubation, 100 μl of the culture of fungi obtained above were transferred in triplicate to 96-well plates, and 2.5 μl of Calcofluor White (CFW) were added to each well so as to mark the chitin of the cell walls of the yeasts.
(§7) A step of acquiring images by automated fluorescence microscopy (ScanR screening station, Olympus), using a 40× lens and a CFW filter, made it possible to obtain 30 images per well so as to capture enough cells to provide statistically significant data. These images were analysed by software (ScanR analysis software, Olympus). Firstly, the background noise was processed so as to improve the contrast between the fluorescence of the yeasts and background noise. A pixel threshold was then defined. Segmentation of the fluorescent elements present in each of the acquired images was then performed using an algorithm predefined in the software, making it possible to determine the limit of each element on the basis of the fluorescence intensity of said element. A size parameter was then applied to select the yeasts and eliminate the aggregates and the fluorescent debris.
(§8) Each element then corresponding to a yeast, it was thus possible, on the basis of these elements predefined beforehand, to define the fluorescence intensity for each of the yeasts, this intensity being directly correlated with the chitin content of their wall.
(§9) On the basis of said defined elements, it was also possible to automatically count the yeasts,
The strain SC5314 of C. albicans was cultivated as described in paragraph I of the Examples section so as to obtain an inoculum at 3×10^6 CFU/ml in 15 ml of SC medium.
2 ml of fluconazole solution prepared in the SC medium were then added to 1 ml of this inoculum so as to obtain a final concentration of yeast of 10^6 CFU/ml and of 16 μg/ml in fluconazole.
The inoculum was treated in the same way so as to obtain cultures of 10^6 CFU/ml and the following concentrations of fluconazole: 0.015 μg/ml, 0.031 μg/ml, 0.062 μg/ml, 0.125 μg/ml, 0.25 μg/ml, 0.5 μg/ml, 1 μg/ml, 2 μg/ml, 4 μg/ml, 8 μg/ml, 16 μg/ml.
After incubation for 6.5 h at 30° C. with stirring at 200 rpm, 100 μl of each culture were removed and transferred to 96-well plates. This procedure was performed in triplicate, and 2.5 μl of CFW were then added to each well.
The chitin level in the cell wall of the yeasts was then measured by […] analysis (HCA) microscopy, as described in paragraph II of the Examples section, in triplicate for each condition of concentration of fluconazole and without fluconazole.

Assay [2] deals with strain Tg5 of C. glabrata. As to the kind of experiment: Sensitivity test by HCA microscopy (chitin level, Calcofluor White). In kind it is cell-based, Candida glabrata. The settings on record: 6.5 h at 35° C., RPMI medium; for decrease in the chitin level in the wall of the cells: vs cells in the absence of antifungal agent, concentration gradient of Table 1. As for the experimental part:
as §1, §2, §3, §4, §5, §6
as §7, with “A size parameter was then applied to select the yeasts and eliminate the aggregates and the fluorescent debris.” left out
(§10) Each element then corresponding to a yeast, it was thus possible, on the basis of these elements predefined beforehand, to define the fluorescence intensity for each of the yeasts, this intensity being directly correlated with the chitin content of their wall. […]
(§11) The chitin level in the cell wall of the yeasts was then measured by […] analysis (HCA) microscopy, as described in paragraph II of the Examples section, in triplicate for each condition of concentration of fluconazole and without fluconazole. […]

For assay [3], the system named is strain 8/21 of C. parapsilosis. Described as above. In kind it is cell-based, Candida parapsilosis. The settings on record: vs cells in the absence of antifungal agent; 6.5 h at 30° C., SC medium; concentration gradient of Table 1. As for the experimental part:
as §1
Yeast colonies were then removed from YPD medium plates and suspended in a 0.9% NaCl saline solution, in which the cell concentration was estimated by optical microscopy using Kova counting slides. […]
as §7, with “A pixel threshold was then defined.” left out, “A size parameter was then applied to select the yeasts and eliminate the aggregates and the fluorescent debris.” left out
as §10

Assay [4] deals with strain ATCC®6258 of C. krusei. The experiment in a line: Sensitivity test by HCA microscopy (chitin level, Calcofluor White; cell count). It counts as cell-based, Candida krusei. As for the experimental part:
as §1, §2, §3, §4, §5, §6, §7, §8, §9
The strain ATCC®6258 of C. krusei was cultivated as described in paragraph I of the Examples section so as to obtain an inoculum at 3×10^6 CFU/ml in 15 ml of SC medium.
2 ml of fluconazole solution prepared in the SC medium were then added to 1 ml of this inoculum so as to obtain a final concentration of yeast of 10^6 CFU/ml and of 128 μg/ml in fluconazole. […]
as §11

`OC(Cn1cncn1)(Cn1cncn1)c1ccc(F)cc1F` [fluconazole]: in assay [1], the “phenotype of the strain with respect to the antifungal agent (HCA)” value (from here on “phenotype of the strain”) was “sensitive (an increase in the chitin level greater than or equal to 20% is observed compared to the chitin level of a population of cells of said fungus in the absence of antifungal agent, as well as a decrease in the number of cells of at least 0.3 log)”; the “decrease of the number of cells” value was “at least 0.3 log”; the “increase of the chitin level in the wall of the cells” value is “greater than or equal to 20%”. Further, in assay [2], the “phenotype of the strain” value is reported as “resistant (an increase in the chitin level having a value less than 10% or a decrease in the chitin level of less than 20% or an unchanged chitin level)” and the “decrease in the chitin level in the wall of the cells” value is reported as “less than 20%”. Also, in assay [3], the “increase in the chitin level in the wall of the cells” value (from here on “increase in the chitin level”) is “less than 10%”. In addition, in assay [4] (6.5 h at 30° C., SC medium), the “phenotype of the strain” value is “resistant (an increase in the chitin level having a value less than 10% or a decrease in the chitin level of less than 20% or an unchanged chitin level)”. Also, the “increase in the chitin level” value in assay [4] (vs cells in the absence of antifungal agent, 6.5 h at 30° C., SC medium, concentration gradient of Table 1) is “less than 10%”.
On to `C[C@@H](c1ncncc1F)[C@](O)(Cn1cncn1)c1ccc(F)cc1F` [voriconazole], for which the “phenotype of the strain” value in assay [1] is listed as “sensitive (an increase in the chitin level greater than or equal to 20% is observed compared to the chitin level of a population of cells of said fungus in the absence of antifungal agent, as well as a decrease in the number of cells of at least 0.3 log)”; in assay [2], “resistant (an increase in the chitin level having a value less than 10% or a decrease in the chitin level of less than 20% or an unchanged chitin level)”; in assay [4] (24 h at 30° C., RPMI medium) it was “intermediate (an increase in the chitin level having a value of from 10% to a value less than 20%)”. Further, the “decrease of the number of cells” value in assay [1] is on record as “at least 0.3 log”; in assay [4] (vs cells in the absence of antifungal agent, 24 h at 30° C., RPMI medium), “less than 0.3 log”. Besides, the “increase of the chitin level in the wall of the cells” value is reported as “greater than or equal to 20%” in assay [1] and “greater than or equal to 20%” in assay [4] (vs cells in the absence of antifungal agent, 24 h at 30° C., RPMI medium, concentration gradient of Table 1). Further, the “decrease in the chitin level in the wall of the cells” value in assay [2] was “less than 20%”. In addition, the “increase in the chitin level” value in assay [3] is “less than 10%”.
